Patent publication US20110306638A1, “BENZISOXAZOLE PIPERIDINYL DERIVATIVES, PHARMACEUTICAL COMPOSITIONS COMPRISING THE DERIVATIVES AND THEIR USE” (NHWA PHARMA. CORPORATION, priority 2008, published 2011)
Marks after values point to notes of the source that are not given here.

Experiments:
[1] = molecular target: T1, 5-HT reuptake by brain synapses (Rattus norvegicus, UniProt P31652); assay: [3H]5-HT reuptake test in rat brain synapses; type: biochemical
T1 construct: forehead cortex was obtained for [^3H]5-HT, [^3H]NA reuptake test; from tissue; host or cells: rat (SD) forebrain cortex synaptosomes
Procedure: The method was as follows:
Male SD rats were killed by cervical dislocation, heads were immediately cut and brains were obtained and put on ice, related brain tissues were dissected (forehead cortex was obtained for [^3H]5-HT, [^3H]NA reuptake test, corpus striatum was obtained for [^3H]DA reuptake).
After the sample was weighed, 10 folds (V/W) ice cold 0.32 mol/L sucrose solution was added.
According to [a. […] 5-HT was added and after incubation in water bath at 37° C. for 10 min, the reaction mixture was immediately taken out of the water bath and 2 ml ice cold 150 mmol/L Tris-HCl was added to terminate the reaction. The sample was collected on a round glass fiber filter by vacuum filtration and washed three times with 3 ml ice cold Tris-HCl buffer. The filter membrane was removed, dried in a far-infrared oven for 15 min, then transferred into a EP tube, in which 1.5 ml scintillation fluid was added, left overnight and detected by a scintillation counter. The test sample was not added into solvent controlled overall binding tube or non-specific binding tube. 50 μl solvent was added into the overall binding tube, and in [^3H] 5-HT reuptake test, 600 μmol/L cocaine was added into the non-specific binding tube.

mice = assay: Sedative effects in mice (spontaneous activities); type: in vivo; design: unit not given here; conditions: single dose 20 mg/kg
Procedure: Spontaneous activities of the mice were recorded by alternating current tube, Sedative effects were tested after single dose (20 mg/kg).

[2] = molecular target: opioid receptor subtype δ (Homo sapiens, UniProt P41143); assay: Competitive binding to opioid receptor subtype δ, [3H]Diprenorphine
Procedure: The respective test compounds were added to the sample tube (final concentration of 10^−5M), incubated at 37° C. for 30 min and placed in ice bath to terminate the reaction. The reaction mixture was filtered through GF/C (Whatman) glass fiber filter by vacuum filtration on a Millipore sample collector. The filter was washed three times with 50 mM Tris-HCl (pH7.4), each with 4 ml; dried and transferred into a 0.5 ml Eppendorf tube, in which 0.5 ml lipophilic scintillation fluid was added. Radioactivity was detected by a LS6500 scintillation counter. Each concentration had three duplicate test tubes and each separate test was repeated 3 to 4 times.
Specific binding CMP value for each sample tube=overall binding CPM value for each sample tube−CPM value of non-specific binding tube.
[Inhibition percentage of competitive binding between the test compound and different opioid receptor subtypes (%)=(100%−specific binding (CPM value)of sample tube/specific binding(CPM value)of solvent group×100%)]
Average was taken for each test drug from three duplicate tubes; each test was repeated two or more times. Data were presented as mean±SE and statistical comparison was made by ANOVA.

[3] = Acute toxicity, single intragastric administration to mice; conditions: mouse, in vivo, po, Bliss method
From the text: Statistics were made according to Bliss method (“Experimental Design and Statistical Basis for Drug Evaluation”, Changxiao Liu, Ruiyuan Su, first edition, Military Medical Science Press, 1993, 80-90).

[4] = Animal model study of II-9 (repeated dosing, addiction potential, oral absorption); type: in vivo

T1 sequence (P31652 whole entry): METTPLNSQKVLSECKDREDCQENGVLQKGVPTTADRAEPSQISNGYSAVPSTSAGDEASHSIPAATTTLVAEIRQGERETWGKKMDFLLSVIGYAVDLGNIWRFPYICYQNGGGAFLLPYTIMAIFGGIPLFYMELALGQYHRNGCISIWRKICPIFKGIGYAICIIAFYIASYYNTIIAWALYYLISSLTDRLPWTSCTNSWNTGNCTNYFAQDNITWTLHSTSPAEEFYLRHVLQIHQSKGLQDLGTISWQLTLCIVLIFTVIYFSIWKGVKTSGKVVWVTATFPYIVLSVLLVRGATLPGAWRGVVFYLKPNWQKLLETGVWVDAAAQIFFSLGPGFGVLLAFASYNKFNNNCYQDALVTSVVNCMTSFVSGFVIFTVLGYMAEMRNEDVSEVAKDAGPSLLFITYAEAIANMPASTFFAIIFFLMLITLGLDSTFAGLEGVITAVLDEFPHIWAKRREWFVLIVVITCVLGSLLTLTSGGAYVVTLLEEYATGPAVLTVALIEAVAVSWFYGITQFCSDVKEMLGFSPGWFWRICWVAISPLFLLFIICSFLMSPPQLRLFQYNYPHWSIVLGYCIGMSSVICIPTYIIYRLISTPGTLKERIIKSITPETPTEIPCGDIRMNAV
opioid receptor subtype δ, sequence (P41143 whole entry): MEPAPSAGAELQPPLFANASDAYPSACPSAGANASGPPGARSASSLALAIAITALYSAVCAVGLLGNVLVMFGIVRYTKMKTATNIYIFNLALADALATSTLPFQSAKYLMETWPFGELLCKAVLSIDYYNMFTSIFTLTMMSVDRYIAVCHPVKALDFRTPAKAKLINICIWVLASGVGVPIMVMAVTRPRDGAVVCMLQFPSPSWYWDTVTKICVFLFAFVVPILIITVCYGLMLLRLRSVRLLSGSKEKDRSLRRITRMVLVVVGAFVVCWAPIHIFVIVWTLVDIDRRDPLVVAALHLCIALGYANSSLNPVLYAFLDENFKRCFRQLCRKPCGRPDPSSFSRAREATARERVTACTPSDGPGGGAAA

N#Cc1ccc2ccn(CCCCN3CCC(c4noc5cc(F)ccc45)CC3)c2c1 [II-9, 1-(4-(4-(6-fluorobenzo[d]isoxazol-3-yl)piperidin-1-yl)butyl)-1H-indole-6-carbonitrile]
inhibitory activity on 5-HT reuptake (in words) ([1]; at 10 μmol/L, compared with Dutoxetine): potent inhibitory activities
inhibition at 10 µM ([1]; final concentration 10 umol/L, rat brain synapses, read-out: 5-HTU [3H] 5-HT reuptake inhibition percentage Mean): 105%
Sedative effect (mice): 47*
affinity to opioid receptor subtype δ (in words) [2]: no obvious affinity
inhibition at 10 µM ([2]; tested concentration 10^−5 mol/L, read-out: δ inhibition percentage of competitive binding): 0%
LD50 [3]: 800 mg/kg
drug tolerance ([4]; after repeated dosing): No drug tolerance is observed
potential for addiction ([4]; in vivo): rather low
absorption through oral administration ([4]; oral): well absorbed
